Experimental data reported in PubChem BioAssay AID330 (DTP/NCI, 2004).
Values joined by “and” are separate entries in the source; they are usually repeats but may differ in a detail not shown here. Equal entries are not always repeated. Toxic doses and inconclusive results are not listed.

Tested on: P388 leukemia ip, CD2F1 mice, survival T/C
Test: NCI In Vivo Anticancer Drug Screen. Data for tumor model P388 Leukemia (intraperitoneal) in CD2F1 (CDF1) mice
Details: endpoint: median survival time, higher = longer survival
Summary of the method: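 Mice carrying the transplanted tumor received test compound or vehicle. Survival was recorded in each group, and the value is the treated-group measurement divided by that of the vehicle-treated control group.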

[1] = dose: 50.0 mg/kg/injection, schedule: Q01DX009 (ip), vehicle: saline with Tween-80
[2] = dose: 100.0 mg/kg/injection, schedule: Q01DX009 (ip), vehicle: saline with Tween-80
[3] = dose: 200.0 mg/kg/injection, schedule: Q01DX009 (ip), vehicle: saline with Tween-80
[4] = dose: 400.0 mg/kg/injection, schedule: Q01DX009 (ip), vehicle: saline with Tween-80
[5] = dose: 50.0 mg/kg/injection, schedule: Q01DX005 (ip), vehicle: Klucel (hydroxypropylcellulose) (HPC)
[6] = dose: 100.0 mg/kg/injection, schedule: Q01DX005 (ip), vehicle: Klucel (hydroxypropylcellulose) (HPC)
[7] = dose: 200.0 mg/kg/injection, schedule: Q01DX005 (ip), vehicle: Klucel (hydroxypropylcellulose) (HPC)
[8] = dose: 50.0 mg/kg/injection, schedule: Q01DX005 (ip), vehicle: saline with Tween-80
[9] = dose: 100.0 mg/kg/injection, schedule: Q01DX005 (ip), vehicle: saline with Tween-80
[10] = dose: 200.0 mg/kg/injection, schedule: Q01DX005 (ip), vehicle: saline with Tween-80
[11] = dose: 60.0 mg/kg/injection, schedule: Q01DX005 (ip), vehicle: Klucel (hydroxypropylcellulose) (HPC)
[12] = dose: 120.0 mg/kg/injection, schedule: Q01DX005 (ip), vehicle: Klucel (hydroxypropylcellulose) (HPC)
[13] = dose: 240.0 mg/kg/injection, schedule: Q01DX005 (ip), vehicle: Klucel (hydroxypropylcellulose) (HPC)
[14] = dose: 6.25 mg/kg/injection, schedule: Q04DX003 (ip), vehicle: saline
[15] = dose: 25.0 mg/kg/injection, schedule: Q01DX009 (ip), vehicle: saline with Tween-80
[16] = dose: 60.0 mg/kg/injection, schedule: Q01DX005 (ip), vehicle: saline
[17] = dose: 120.0 mg/kg/injection, schedule: Q01DX005 (ip), vehicle: saline
[18] = dose: 240.0 mg/kg/injection, schedule: Q01DX005 (ip), vehicle: saline
[19] = dose: 25.0 mg/kg/injection, schedule: Q01DX009 (ip), vehicle: saline
[20] = dose: 25.0 mg/kg/injection, schedule: Q04DX003 (ip), vehicle: saline
[21] = dose: 50.0 mg/kg/injection, schedule: Q01DX009 (ip), vehicle: saline
[22] = dose: 100.0 mg/kg/injection, schedule: Q01DX009 (ip), vehicle: saline
[23] = dose: 100.0 mg/kg/injection, schedule: Q04DX003 (ip), vehicle: saline
[24] = dose: 50.0 mg/kg/injection, schedule: Q04DX003 (ip), vehicle: saline

For `O=C(CCl)Nc1nc(NC(=O)CCl)nc(NC(=O)CCl)n1`, the T/C (dose: 100.0 mg/kg/injection, schedule: Q04DX002 (ip), vehicle: saline) was 96 % of control, the T/C (dose: 200.0 mg/kg/injection, schedule: Q04DX002 (ip), vehicle: saline) was 96 % of control and the T/C (dose: 400.0 mg/kg/injection, schedule: Q04DX002 (ip), vehicle: saline) was 95 % of control.

For `CCCCNC(=O)CCC`, the T/C [1] was 88 % of control, the T/C [2] was 94 % of control and the T/C [3] was 95 % of control. The T/C [4] was 97 % of control.

In the case of `CCCCNC(=O)CCC(NS(=O)(=O)c1ccc(C)cc1)C(=O)NCCCC` (configuration not stated), the T/C [5] is reported as 93 % of control, the T/C [6] is reported as 100 % of control and the T/C [7] is reported as 93 % of control.

In the case of `Cc1nc2ccccc2c(=O)n1/N=C/c1cccc([N+](=O)[O-])c1`, the T/C [8] is reported as 104 % of control, the T/C [9] is reported as 99 % of control and the T/C [10] is reported as 98 % of control.

With `COc1ccc2c(c1OC)CN1CCc3cc4c(cc3C1C2C)OCO4` (configuration not stated) the T/C (dose: 50.0 mg/kg/injection, schedule: Q04DX003 (ip), vehicle: distilled water + Tween-80) was 91 % of control, the T/C (dose: 100.0 mg/kg/injection, schedule: Q04DX003 (ip), vehicle: distilled water + Tween-80) was 96 % of control and the T/C (dose: 200.0 mg/kg/injection, schedule: Q04DX003 (ip), vehicle: distilled water + Tween-80) was 91 % of control. The T/C (dose: 400.0 mg/kg/injection, schedule: Q04DX003 (ip), vehicle: distilled water + Tween-80) was 89 % of control.

In the case of `O=C1CCC(=O)N1CN(Cc1ccccc1)Cc1ccccc1`, the T/C [11] is reported as 100 % of control, the T/C [12] is reported as 97 % of control and the T/C [13] is reported as 103 % of control.

For `N#Cc1[nH]nc(N)c1C#N`, the T/C (dose: 100.0 mg/kg/injection, schedule: Q01DX001 (ip), vehicle: water) was 103 % of control, the T/C (dose: 200.0 mg/kg/injection, schedule: Q01DX001 (ip), vehicle: water) was 103 % of control and the T/C (dose: 400.0 mg/kg/injection, schedule: Q01DX001 (ip), vehicle: water) was 98 % of control.

With `O=C(NC1C=Nc2ccccc2NC1=O)c1ccc(Cl)cc1` (configuration not stated) the T/C [11] was 91 % of control, the T/C [12] was 98 % of control and the T/C [13] was 91 % of control.

With `O=C(Nc1c(Cl)cccc1Cl)OCc1ccco1` the T/C [11] was 105 % of control, the T/C [12] was 102 % of control and the T/C [13] was 100 % of control.

For `O=C1OC2c3ccccc3C(=O)C2(c2ccccc2)O1` (configuration not stated), the T/C (dose: 100.0 mg/kg/injection, schedule: Q01DX001 (ip), vehicle: saline with Tween-80) was 97 % of control, the T/C [9] was 97 % of control and the T/C (dose: 200.0 mg/kg/injection, schedule: Q01DX001 (ip), vehicle: saline with Tween-80) was 97 % of control. For the same compound, the T/C [10] was 97 % of control, the T/C (dose: 400.0 mg/kg/injection, schedule: Q01DX001 (ip), vehicle: saline with Tween-80) was 96 % of control and the T/C (dose: 400.0 mg/kg/injection, schedule: Q01DX005 (ip), vehicle: saline with Tween-80) was 96 % of control.

In the case of `[CH3][Sn]([Cl])([Cl])[c]1ccccc1`, the T/C (dose: 1.56 mg/kg/injection, schedule: Q04DX003 (ip), vehicle: saline) is reported as 114 % of control, the T/C (dose: 3.12 mg/kg/injection, schedule: Q04DX003 (ip), vehicle: saline) is reported as 109 % of control and the T/C [14] is reported as 106 % of control and 117 % of control.

With `O=c1/c(=C/c2ccc(Cl)cc2)sc2nc(-c3ccccc3)nn12` the T/C (dose: 50.0 mg/kg/injection, schedule: Q01DX009 (ip), vehicle: Klucel (hydroxypropylcellulose) (HPC)) was 94 % of control, the T/C (dose: 100.0 mg/kg/injection, schedule: Q01DX009 (ip), vehicle: Klucel (hydroxypropylcellulose) (HPC)) was 95 % of control and the T/C (dose: 200.0 mg/kg/injection, schedule: Q01DX009 (ip), vehicle: Klucel (hydroxypropylcellulose) (HPC)) was 101 % of control.

In the case of `O=C1Nc2ccccc2C1=Nc1cccc2cnccc12`, the T/C [11] is reported as 100 % of control, the T/C [12] is reported as 95 % of control and the T/C [13] is reported as 98 % of control.

With `O=C1c2cc(Cl)ccc2-c2c(Cl)cc(Cl)cc21` the T/C (dose: 12.5 mg/kg/injection, schedule: Q01DX009 (ip), vehicle: saline with Tween-80) was 87 % of control, the T/C [15] was 100 % of control and the T/C [1] was 100 % of control.

With `CC(C)C(C/C(=N\Nc1ccc([N+](=O)[O-])cc1[N+](=O)[O-])C1CC1)C(=O)O` (configuration not stated) the T/C (dose: 25.0 mg/kg/injection, schedule: Q01DX005 (ip), vehicle: saline with Tween-80) was 105 % of control, the T/C [8] was 96 % of control and the T/C [9] was 89 % of control.

For `C1C[N+]2(CCO1)CC[N+]1(CCOCC1)CC2`, the T/C [16] was 110 % of control, the T/C [17] was 101 % of control and the T/C [18] was 101 % of control.

In the case of `O=C(NCCCCCCNC(=O)C12CC3CC(CC(C3)C1)C2)C12CC3CC(CC(C3)C1)C2`, the T/C [5] is reported as 92 % of control, the T/C [6] is reported as 92 % of control and the T/C [7] is reported as 90 % of control.

In the case of `C=C1C(=O)CC2C3C1C2(C)CCC(OC(C)=O)C3(C)C` (configuration not stated), the T/C (dose: 5.5 mg/kg/injection, schedule: Q01DX005 (ip), vehicle: Klucel (hydroxypropylcellulose) (HPC)) is reported as 93 % of control, the T/C (dose: 11.0 mg/kg/injection, schedule: Q01DX005 (ip), vehicle: Klucel (hydroxypropylcellulose) (HPC)) is reported as 93 % of control and the T/C (dose: 22.0 mg/kg/injection, schedule: Q01DX005 (ip), vehicle: Klucel (hydroxypropylcellulose) (HPC)) is reported as 100 % of control. The T/C (dose: 44.0 mg/kg/injection, schedule: Q01DX005 (ip), vehicle: Klucel (hydroxypropylcellulose) (HPC)) was 103 % of control.

`CC1CN1P1(N2CC2C)=NP(N2CC2C)(N2CC2C)=NP(N2CC2C)(N2CC2C)=N1` (configuration not stated) was tested, and the T/C (dose: 12.5 mg/kg/injection, schedule: Q04DX003 (ip), vehicle: saline) was 100 % of control, the T/C [19] was 154 % of control and the T/C [20] was 112 % of control. The T/C (dose: 33.0 mg/kg/injection, schedule: Q01DX009 (ip), vehicle: saline with Tween-80) was 154 % of control, the T/C [1] was 170 % of control and 193 % of control and the T/C [21] was 172 % of control. For the same compound, the T/C (dose: 66.0 mg/kg/injection, schedule: Q04DX003 (ip), vehicle: saline) was 154 % of control, the T/C (dose: 75.0 mg/kg/injection, schedule: Q01DX009 (ip), vehicle: saline with Tween-80) was 218 % of control and the T/C [2] was 102 % of control. For the same compound, the T/C [22] was 90 % of control and the T/C [23] was 181 % of control.

`CC1(C)OC2(C)CCC1C1C2N1C(=O)c1ccc([N+](=O)[O-])cc1` (configuration not stated) was tested, and the T/C [5] was 96 % of control, the T/C [6] was 102 % of control and the T/C [7] was 110 % of control.

For `NC(=O)c1nnn(Cc2ccccc2)c1N`, the T/C [15] was 119 % of control, the T/C [1] was 102 % of control and the T/C [2] was 109 % of control. The T/C [3] was 106 % of control and the T/C [4] was 110 % of control.

With `O=C(Nc1cccc2c1CCCC2)c1cc2ccccc2cc1O` the T/C [8] was 92 % of control, the T/C [9] was 91 % of control and the T/C [10] was 91 % of control.

For `O=S=C(c1ccccc1)N1CCc2ccccc21`, the T/C [19] was 97 % of control, the T/C [21] was 97 % of control and the T/C [22] was 89 % of control.

With `CC(C)c1ccc(O)c(O)c1` the T/C [15] was 113 % of control, the T/C [1] was 113 % of control and the T/C [2] was 111 % of control.

For `CCOC(=O)c1c(N)c(=O)oc2c3c(c(O)cc12)OCO3`, the T/C [5] was 94 % of control and the T/C [6] was 89 % of control.

For `CC(=O)O/N=C/c1ccncc1`, the T/C [20] was 108 % of control, the T/C [24] was 101 % of control and the T/C [23] was 107 % of control. For the same compound, the T/C (dose: 200.0 mg/kg/injection, schedule: Q04DX003 (ip), vehicle: saline) was 109 % of control and the T/C (dose: 400.0 mg/kg/injection, schedule: Q04DX003 (ip), vehicle: saline) was 117 % of control.

In the case of `COc1ccc(/C=C/C(=O)c2ccccc(=O)c2O)cc1OC`, the T/C (dose: 25.0 mg/kg/injection, schedule: Q01DX005 (ip), vehicle: Klucel (hydroxypropylcellulose) (HPC)) is reported as 99 % of control, the T/C [5] is reported as 100 % of control and the T/C [6] is reported as 114 % of control. For the same compound, the T/C [7] was 113 % of control.

With `O=c1c(N=Nc2nc3ccc([N+](=O)[O-])cc3s2)c(O)n(-c2ccccc2)c(=S)n1-c1ccccc1` the T/C [16] was 96 % of control, the T/C [17] was 96 % of control and the T/C [18] was 92 % of control.

`CC1CCC(C)N1P(=O)(N1CC1)N1CC1` (configuration not stated) was tested, and the T/C [14] was 108 % of control, the T/C (dose: 12.5 mg/kg/injection, schedule: Q01DX009 (ip), vehicle: saline) was 110 % of control and the T/C [19] was 90 % of control. The T/C [20] was 160 % of control and 200 % of control and the T/C [24] was 155 % of control.
